Assays:
Type in all cases: cell-based
[1] = target: AKT3 (Homo sapiens, UniProt Q9Y243); assay: Western Blot, degradation of AKT3 protein in H1975-OR cells; parameters: endogenous in cells; host or cells: H1975-OR (osimertinib-resistant H1975); settings: 1000 nM, 24 hours, maximum degradation rate
Description: (§1) Cell line: Non-small cell lung cancer H1975-OR cell line, which is an Osimertinib resistant H1975 cell line, and could be obtained through low dose gradual addition culture. Specific method: H1975 cells were spread in a 10 cm culture dish at a convergence rate of 60-70%, added 50 nM of Osimertinib to the culture medium. After the cell state stabilized, the concentration of Osimertinib was gradually double to 3 μM.
(§2) Conventional Western Blot (immunoblotting) was used for detection, as follows: a certain number of H1975-OR cells were planted on a 96 well plate, adherent cultured in an incubator overnight, and added a certain concentration of compound to act for 24 hours. 1×SDS lysis buffer with protease and phosphatase inhibitors was used to lyse cells. Cell lysates were separated by SDS-PAGE and transferred to PVDF membrane. Then, at room temperature, the PCDF membrane was taken out and immersed in a sealing solution (5% BSA TBS solution containing 0.5% Tween-20) for sealing treatment for 1 hour, and then incubated with a specific primary antibody at 4° C. overnight. The imprints were washed with TBST and incubated with horseradish peroxidase (HRP) labeled secondary antibodies at room temperature for 2 hours. Finally, ECL plus fluorescence detection reagent (Thermo Scientific, Waltham, MA) was used for protein development, and the Amersham Imager 600 system (GE, America) was used for photography. The detection results were processed using ImageJ software to obtain the grayscale value G (Density).

[2] = target: T1, AKT1 (Homo sapiens, UniProt P31749); assay: Western Blot, degradation of AKT1 protein in H1975-OR cells; settings: 1000 nM, 24 hours, maximum degradation rate
T1 construct: AKT1, AKT2, and AKT3 proteins in H1975-OR cells; endogenous in cells; host or cells: H1975-OR (osimertinib-resistant H1975)
T1 sequence (P31749 whole entry): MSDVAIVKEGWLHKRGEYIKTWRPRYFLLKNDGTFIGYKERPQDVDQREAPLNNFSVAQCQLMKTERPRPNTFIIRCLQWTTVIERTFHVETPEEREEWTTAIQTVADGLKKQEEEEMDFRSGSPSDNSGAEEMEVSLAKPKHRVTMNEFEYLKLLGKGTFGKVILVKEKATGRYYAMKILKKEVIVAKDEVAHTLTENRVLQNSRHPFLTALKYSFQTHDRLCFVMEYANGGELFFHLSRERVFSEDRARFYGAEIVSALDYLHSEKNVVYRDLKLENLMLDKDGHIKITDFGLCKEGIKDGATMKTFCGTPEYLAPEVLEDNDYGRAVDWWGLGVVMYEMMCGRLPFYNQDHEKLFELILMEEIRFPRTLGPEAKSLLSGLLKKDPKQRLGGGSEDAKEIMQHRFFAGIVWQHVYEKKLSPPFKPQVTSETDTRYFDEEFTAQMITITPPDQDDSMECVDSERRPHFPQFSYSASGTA
Description: as §1, §2

[3] = target: T2, AKT2 (Homo sapiens, UniProt P31751); assay: Western Blot, degradation of AKT2 protein in H1975-OR cells; settings: 1000 nM, 24 hours, maximum degradation rate
T2 construct: AKT1, AKT2, and AKT3 proteins in H1975-OR cells; endogenous in cells; host or cells: H1975-OR (osimertinib-resistant H1975)
T2 sequence (P31751 whole entry): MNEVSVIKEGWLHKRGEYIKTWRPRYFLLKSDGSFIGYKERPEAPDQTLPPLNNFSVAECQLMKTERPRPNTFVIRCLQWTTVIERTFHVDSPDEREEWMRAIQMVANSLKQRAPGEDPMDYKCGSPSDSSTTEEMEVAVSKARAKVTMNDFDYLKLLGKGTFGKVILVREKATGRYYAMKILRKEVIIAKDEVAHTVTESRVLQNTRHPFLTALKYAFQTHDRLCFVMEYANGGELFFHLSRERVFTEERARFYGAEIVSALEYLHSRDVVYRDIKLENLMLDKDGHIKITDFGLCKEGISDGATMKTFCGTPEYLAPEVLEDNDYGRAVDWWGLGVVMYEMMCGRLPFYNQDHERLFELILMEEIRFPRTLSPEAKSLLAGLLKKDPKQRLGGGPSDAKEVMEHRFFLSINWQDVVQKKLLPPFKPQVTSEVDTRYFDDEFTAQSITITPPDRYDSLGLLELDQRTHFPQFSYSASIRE
Description: as §1, §2

[4] = system: H1975; assay: CCK-8 tumor cell proliferation, H1975; settings: Homo sapiens, NCI-H1975, H1975 cells, 72 hours
Description: (§3) Tumor cells (see Table 2 to Table 5) were inoculated in 96-well plates in complete culture medium (2000-3000 cells/well). After overnight incubation, the compounds with different concentrations (0.000508 μM-10 μM) were used to treat the cells separately for 72 hours. CCK-8 (Cell Counting Kit 8, Dojindo Laboratories, Kumamoto, Japan) experiment was used to evaluate cell proliferation. GraphPad Prism 5.0 software (La Jolla, CA) was used to calculate the half-maximal inhibitory concentration (IC50) values by fitting the concentration response curve. Each IC50 value was represented as an average value±SD.

[5] = system: H1975OR; assay: CCK-8 tumor cell proliferation, H1975OR; settings: H1975OR cells (Osimertinib resistant), 72 hours
Description: as §1, §3

Sequence of AKT3 (Q9Y243 whole entry): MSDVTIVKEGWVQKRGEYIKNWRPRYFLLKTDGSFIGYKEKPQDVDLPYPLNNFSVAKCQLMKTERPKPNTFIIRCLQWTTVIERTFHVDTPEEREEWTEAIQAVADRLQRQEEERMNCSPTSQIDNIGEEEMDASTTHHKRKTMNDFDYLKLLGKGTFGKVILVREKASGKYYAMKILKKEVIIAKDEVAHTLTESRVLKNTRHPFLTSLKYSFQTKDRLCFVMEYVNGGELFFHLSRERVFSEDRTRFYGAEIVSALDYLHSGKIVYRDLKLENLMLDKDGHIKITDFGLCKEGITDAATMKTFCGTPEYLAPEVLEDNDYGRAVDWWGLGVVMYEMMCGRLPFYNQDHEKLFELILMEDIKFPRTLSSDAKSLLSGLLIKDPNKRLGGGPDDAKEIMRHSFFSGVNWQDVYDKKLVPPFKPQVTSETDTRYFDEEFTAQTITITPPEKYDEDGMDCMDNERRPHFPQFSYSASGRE

Row | SMILES | Dmax at 1 µM [1] [%] | Dmax at 1 µM [2] [%] | Dmax at 1 µM [3] [%] | IC50 [4] [µM] | IC50 [5] [µM]
1 | COc1cc(N2CCN(CCCCCCCCCCCCNC(=O)CC34CC5CC(CC(C5)C3)C4)CC2)ccc1Nc1ncc2c(C)cc(=O)n(-c3cccc(NC4CCN(C)CC4)c3)c2n1 [ZX-HYT-18, 2-((3R, 5R, 7R)-adamantan-1-yl)-N-(12-(4-(3-methoxy-4-(5-methyl-8-(3-(1-methylpipe-4-yl)amino)phenyl)-7-oxo-7,8-dihydropyridino [2,3-d]pyrimidin-2-yl)amino)phenyl) piperazin-1-yl) dodecyl) acetamide] | 30.6 | 0 | 0 |  | 
2 | COc1cc(OCCCCCCCCCCCCNC(=O)CC23CC4CC(CC(C4)C2)C3)ccc1Nc1ncc2c(C)cc(=O)n(-c3cccc(NC(=O)C4CC4)c3)c2n1 [ZX-HYT-28, N-(3-(2-((4-((12-(2-((3R, 5R, 7R)-adamantan-1-yl)acetylamino)dodecyl)oxy)-2-methoxyphenyl)amino)-5-methyl-7-oxypyrimidino [2,3-d]pyrimidin-8 (7H)-yl)phenyl) cyclopropane formamide] |  |  |  | 0.645 | 0.177
3 | CCCCCCCCN1CCN(c2ccc(Nc3ncc4c(C)cc(=O)n(-c5cccc(NC(=O)C6CC6)c5)c4n3)c(OC)c2)CC1 [ZX-HYT-30, N-(3-(2-((2-methoxy-4-(4-octylpiperazin-1-yl)phenyl)amino)-5-methyl-7-oxypyridino [2,3-d]pyrimidin-8 (7H)-yl)phenyl) cyclopropane formamide] | 51.9 | 40.5 | 37.1 | > 10 | 8.84 ± 2.17
4 | COc1cc(N2CCN(CCCCCCCCCCCCNC(=O)CC34CC5CC(CC(C5)C3)C4)CC2)ccc1Nc1ncc2c(C)cc(=O)n(-c3ccccc3)c2n1 [ZX-HYT-36, 2-((3R, 5R, 7R)-adamantan-1-yl)-N-(12-(4-(3-methoxy-4-((5-methyl-7-oxy-8-phenyl-7,8))-dihydropyridino [2,3-d]pyrimidin-2-yl)amino)phenyl) piperazin-1-yl) dodecyl) acetamide] | 12.3 | 0 | 0 | 0.219 ± 0.0782 | 0.107 ± 0.008
5 | COc1cc(N2CCN(CCCCCCCCCCCCNC(=O)CC34CC5CC(CC(C5)C3)C4)CC2)ccc1Nc1ncc2c(C)cc(=O)n([C@H]3CCN(C(=O)C4CC4)C3)c2n1 [ZX-HYT-37] | 17.5 | 0 | 0 | 4.15 ± 0.462 | 6.31 ± 0.645
6 | COc1cc(OCCOCCCCCCCCCCCCOCCC23CC4CC(CC(C4)C2)C3)ccc1Nc1ncc2c(C)cc(=O)n(-c3cccc(NC(=O)C4CC4)c3)c2n1 [ZX-HYT-38, N-(3-(2-((4-(2-((12-(2-((3R, 5R, 7R)-adamantan-1-yl)ethoxy)dodecyl)oxy)ethoxy)-2-methoxyphenyl)amino)-5-methyl-7-oxypyridino [2,3-d]pyrimidin-8 (7H)-yl)phenyl) cyclopropane formamide] | 16.2 | 0 | 0 |  | 
7 | COc1cc(N2CCN(CCCCCCCCCCCCNC(=O)CC34CC5CC(CC(C5)C3)C4)CC2)ccc1Nc1ncc2c(C)cc(=O)n(-c3cccc(OCC4CC4)c3)c2n1 [ZX-HYT-40, 2-((3R, 5R, 7R)-adamantan-1-yl)-N-(12-(4-(4-((8-(3-(cyclopropylmethoxy)phenyl)-5-methyl-7-oxo-) 7,8-dihydropyridino [2,3-d]pyrimidin-2-yl)amino)-3-methoxyphenyl)piperazin-1-yl) dodecyl) acetamide] | 53 | 32 | 30.7 | 0.0864 ± 0.0296 | 0.0609 ± 0.014

Further lines, results first:

Row | Dmax at 1 µM [1] [%] | Dmax at 1 µM [2] [%] | Dmax at 1 µM [3] [%] | IC50 [4] [µM] | IC50 [5] [µM] | SMILES
8 | 70.3 | 0 | 31.4 |  |  | CCc1cccc(-n2c(=O)cc(C)c3cnc(Nc4ccc(N5CCN(CCCCCCCCCCCCNC(=O)CC67CC8CC(CC(C8)C6)C7)CC5)cc4OC)nc32)c1 [ZX-HYT-16, 2-((3R, 5R, 7R)-adamantan-1-yl)-N-(12-(4-(4-(8-(3-ethylphenyl)-5-methyl-7-oxy-7,8-dihydropyridino [2,3-d]pyrimidin-2-yl)amino)-3-methoxyphenyl)piperazin-1-yl) dodecyl) acetamide]
9 | 6.8 | 0 | 0 |  |  | COc1cc(N2CCN(CCCCCCCCCCCCNC(=O)CC34CC5CC(CC(C5)C3)C4)CC2)ccc1Nc1ncc2c(C)cc(=O)n([C@H]3CCC[C@@H](C(=O)NC4CC4)C3)c2n1 [ZX-HYT-21, (1R, 3S)-3-(2-(4-(4-(12-(2-(((3R, 5R, 7R)-adamantan-1-yl)acetylamino)dodecyl)piperazin-1-yl)-2-methoxyphenyl)amino)-5-methyl-7-oxypyridino [2,3-d]pyrimidin-8 (7H)-yl)-N-cyclopropylcyclohexane-1-carboxylamide]
10 | 25 | 0 | 0 | 0.014 | 0.00682 | COc1cc(N2CCN(CCCCCCCCCCCCNC(=O)CC34CC5CC(CC(C5)C3)C4)CC2)ccc1Nc1ncc2c(C)cc(=O)n([C@H]3CCCN(C(=O)C4CC4)C3)c2n1 [ZX-HYT-22]
11 | 41.4 | 0 | 0 |  |  | COc1cc(N2CCN(CCCCCCCCCCCCNC(=O)CC34CC5CC(CC(C5)C3)C4)CC2)ccc1Nc1ncc2c(C)cc(=O)n([C@H]3CCC[C@@H](NC(=O)C4CC4)C3)c2n1 [ZX-HYT-23]
12 | 76.3 | 0 | 30.2 | 7.84 ± 1.35 | 1.67 ± 0.69 | COc1cc(OCCOCCCCCCCCCCCCNC(=O)CC23CC4CC(CC(C4)C2)C3)ccc1Nc1ncc2c(C)cc(=O)n(-c3cccc(NC(=O)C4CC4)c3)c2n1 [ZX-HYT-27, N-(3-(2-(4-(2-((12-(2-(((3R, 5R, 7R)-adamantan-1-yl)acetylamino)dodecyl)oxy)ethoxy)-2-methoxyphenyl)amino)-5-methyl-7-oxypyridino [2,3-d]pyrimidin-8 (7H)-yl)phenyl) cyclopropaneformamide]
13 | 55.5 | 0 | 30.6 | 0.145 ± 0.101 | 0.217 ± 0.0367 | COc1cc(N2CCN(CCCCCCCCN)CC2)ccc1Nc1ncc2c(C)cc(=O)n(-c3cccc(NC(=O)C4CC4)c3)c2n1 [ZX-HYT-31]
14 | 45.2 | 0 | 24.3 | 1.02 ± 0.24 | 0.21 ± 0.04 | COc1cc(N2CCN(CCCCCCCCNC(=O)[C@@]34CC5C[C@@](C)(C[C@@](C)(C5)C3)C4)CC2)ccc1Nc1ncc2c(C)cc(=O)n(-c3cccc(NC(=O)C4CC4)c3)c2n1 [ZX-HYT-32]
15 | 55.3 | 0 | 43.7 | 2.31 ± 0.52 | 0.44 ± 0.14 | COc1cc(N2CCN(CCCCCCCCNC(=O)CC(C)(C)C)CC2)ccc1Nc1ncc2c(C)cc(=O)n(-c3cccc(NC(=O)C4CC4)c3)c2n1 [ZX-HYT-33]
16 | 56.6 | 55.4 | 67.5 | 1.15 ± 0.42 | 0.25 ± 0.12 | COc1cc(N2CCN(CCCCCCCCNC(=O)C3CCC(F)(F)CC3)CC2)ccc1Nc1ncc2c(C)cc(=O)n(-c3cccc(NC(=O)C4CC4)c3)c2n1 [ZX-HYT-34]
17 | 43.4 | 42.2 | 39.1 | 2.59 ± 0.2 | 0.32 ± 0.04 | COc1cc(N2CCN(CCCCCCCCNC(=O)C34CC5CC(CC(C5)C3)C4)CC2)ccc1Nc1ncc2c(C)cc(=O)n(-c3cccc(NC(=O)C4CC4)c3)c2n1 [ZX-HYT-35, (3R,5R,7R)—N-(8-(4-(4-((8-(3-(cyclopropaneformamide)phenyl)-5-methyl-7-oxy-7,8-dihydropyridino [2,3-d-dipyrimidin-2-yl)amino)-3-methoxyphenyl)piperazin-1-yl)octyl)adamantan-1-carboxylamide]
18 | 55.3 | 0 | 51 | 0.00919 ± 0.00567 | 0.0102 ± 0.004 | COc1cc(N2CCN(CCCCCCCCCCCCNC(=O)CC34CC5CC(CC(C5)C3)C4)CC2)ccc1Nc1ncc2c(C)cc(=O)n(-c3cccc(NCC4CCC4)c3)c2n1 [ZX-HYT-39, 2-((3R, 5R, 7R)-adamantan-1-yl)-N-(12-(4-(4-((8-(3-((cyclobutylmethyl)amino)phenyl)-5-methyl-7)-oxo-7,8-dihydropyridino [2,3-d]pyrimidin-2-yl)amino)-3-methoxyphenyl)piperazin-1-yl) dodecyl) acetamide]
